Values of other authors in patent US10674726B2, “Composition” (Conopco, Inc., priority 2013, dated 2020).

Conditions: at neutral pH

Compound | Critical Micelle Concentration [mg/L]
CCCCCCCC(CC(=O)O)OC(=O)CC(CCCCCCC)OC1OC(C)C(O)C(O)C1OC1OC(C)C(O)C(O)C1O (centres unmarked) [dirhamnolipid, 3-[3-[4,5-dihydroxy-6-methyl-3-(3,4,5-trihydroxy-6-methyloxan-2-yl)oxyoxan-2-yl]oxydecanoyloxy]decanoic acid] | 30
CCCCCCCC(CC(=O)O)OC(=O)CC(CCCCCCC)O[C@@H]1O[C@@H](C)[C@H](O)[C@@H](O)[C@H]1O (stereo partly drawn) [mono-rhamnolipid, 3-[3-[(2R,3R,4R,5R,6S)-3,4,5-trihydroxy-6-methyloxan-2-yl]oxydecanoyloxy]decanoic acid] | 20
